How the values were obtained:
[1] = test system: livers from HiAD-fed mice; assay: Rheometry of livers (dynamic time sweep and stress relaxation test); type: in vivo; conditions: 600 s; for storage modulus (stiffness, G'): 2% constant strain, 1 radian/s, FIG. 3B; for faster relaxation times (high viscoelasticity) of HiAD livers, stress relaxation test: initial 10% strain, FIGS. 3C-3D
Protocol: FIGS. 3A-3D. […] The plate was lowered to touch the sample and 100˜300 Pa of initial force was applied. Dynamic time sweep test (2% constant strain, oscillation frequency 1 radian/s, measurements taken for 600 s) was done first to collect the shear storage modulus (stiffness, G′) and loss modulus (G″) (FIG. 3A). […] Stress relaxation test was performed for 600 s with an initial 10% strain. […] Stress was normalized by the initial stress (FIG. 3C). Quantification of timescale at which the stress is relaxed to half its original value (τ1/2), from the tests in FIG. 3C (FIG. 3D). (N=2-4, Data are represented as mean±SEM; one way ANOVA followed by post-hoc Tukey test *p<0.05, **p<0.01, ***p<0.001).
The plate was lowered to touch the sample and 100˜300 Pa of initial force was applied. Dynamic time sweep test (2% constant strain, oscillation frequency 1 radian/s, measurements taken for 600 s) was done first to collect the shear storage modulus (stiffness, G′) and loss modulus (G″) (FIG. 3A). […] A stress relaxation test was performed for 600 s with an initial 10% strain. […] Stress was normalized by the initial stress (FIG. 3C). Quantification of timescale at which the stress is relaxed to half its original value (τ1/2), from the tests in FIG. 3C (FIG. 3D). (N=2-4, Data are represented as mean±SEM; one way ANOVA followed by post-hoc Tukey test *p<0.05, **p<0.01, ***p<0.001).

[2] = test system: livers from HiAD-fed mice; assay: Atomic force microscopy (AFM) indentation of livers, hysteresis between approach and retraction curves; type: in vivo; conditions: 60 mg/kg daily, i.p., FIG. 1B
From the text: FIGS. 1A-1B. ECM viscoelasticity increases in an advanced glycation end product (AGE) and hepatocyte RAGE-dependent manner. Schematic presentation of the methods used to assess mechanical responses to indentation by an atomic force microscope (AFM) probe. Force-distance curve is generated when the probe indents the sample until a defined force is reached (blue, approach curve) and the cantilever is retracted (red, retraction curve). The hysteresis between the approach and retraction curves indicates sample viscosity (FIG. 1A).
As shown in FIGS. 1A-1B, extracellular matrix (ECM) viscoelasticity increases in an AGE and hepatocyte RAGE-dependent manner. Mechanical responses to indentation were assessed by an atomic force microscope (AFM) probe. A force-distance curve is generated when the probe indents the sample until a defined force is reached and the cantilever is retracted. The hysteresis between the approach and retraction curves indicates sample viscosity (FIG. 1A).

SMILES	storage modulus (stiffness, G') [1]	faster relaxation times (high viscoelasticity) of HiAD livers, stress relaxation test [1]	hysteresis area between approach and retraction force curves (sample viscosity) [2]
Cc1ncc(CO)c(CN)c1O [PM, pyridoxamine]	did not change	reversed	reduced
Cc1sc[n+](CC(=O)c2ccccc2)c1C.[Cl-] [alagebrium, 3-phenacyl-4,5-dimethylthiazolium chloride]	did not change	reversed	–

From patent US20250025048A1, “Liver Viscoelastic Changes and Biomarkers for Cancer Invasion” (The Board of Trustees of the Leland Stanford Junior …, priority 2021, published 2025)
